The values that follow come from patent US9707239B2, “Compounds that modulate oxidative stress” (vTv Therapeutics LLC, priority 2011, dated 2017).

Molecules are shown by their SMILES. “Also recorded” adds a separate entry of the source.

One data set has as its system ATF4. As to the kind of experiment: mRNA expression (Quantigene Plex) in NHLF cells: ATF4. The class given is cell-based, human. The conditions noted are these: Table 5, 6 h, mRNA normalized to GAPDH, above DMSO treated cells. Here is the method: (§1) Secondary growth of NHLF cells were used for all assays. Cell were thawed and then placed into culture in T225 flasks. The cells were grown to 80% confluency and harvested by washing once with HEPES buffered saline solution and then trypsinizing. Equal numbers (7×10^3 cells per well) of NHLF cells were plated in 96 well tissue culture plates (Corning). Cells were incubated overnight in FGM-2 medium prior to exposure to compound. Cells were treated with either DMSO or a compound as described below for 6 h. Preparation of cell lysates was carried out according to instructions using the Quantigene Reagent system 2.0 protocol (Panomics). mRNA induction was detected from cell lysate using the Quantigene Plex 2.0 Assay Kit (Panomics) on the Luminex platform (BIO-RAD). Expression of GAPDH mRNA was used as the internal control for the Quantigen Plex 2.0 Assay. The data in Tables 5 and 6 represents the fold change of target mRNA expression, normalized to control values, above DMSO treated cells.

The next data set deals with NQO1. The data set is described as follows: mRNA expression (Quantigene Plex) in NHLF cells: NQO1. The class given is cell-based, human. The conditions noted are these: mRNA normalized to GAPDH, above DMSO treated cells. How it is done: as §1
For a further data set, the system named is human Bach1. The data set is described as follows: MARE controlled luciferase reporter gene assay in HepG2 cells with or without Bach1 expression. The class given is cell-based. The settings on record: transient transfection, with or without Bach1 expressing plasmid, FIG. 7. How it is done: The ability of Compound 13 to act in a manner similar to CoPP provides evidence for the hypothesis that Bach1 activity is being modulated by the compounds. […] To that end, expression vectors were prepared which contained the HMOX1 mARE promoter element recognized by both Bach1 and Nrf2. This element was placed in control of the reporter gene luciferase. Under conditions of transient transfection of HepG2 cells, the reporter has a low level of basal activity due to the relative ratio of Bach1 and Nrf2 found in the cell. Co-transfection with a Bach1 expressing plasmid leads to repression of luciferase activity. Therefore, one can test whether the compounds can increase the level of luciferase in the cells, thus overcoming Bach1 repression. […] Thus, the tested compound is able to overcome suppression by additional Bach1.

Another data set has as its system GADD45A. The data set is described as follows: mRNA expression (Quantigene Plex) in NHLF cells: GADD45A. The class given is cell-based, human. The settings on record: mRNA normalized to GAPDH, above DMSO treated cells. How it is done:
as §1

A further data set deals with Keap1. The data set is described as follows: HMOX1 induction after Keap1 silencing (shRNA). The conditions noted are these: NHLF cells, FIG. 6. The class given is cell-based, human. How it is done:
Normal human lung fibroblasts were plated in a 12-well tissue culture dish at 16,000 cells/well and allowed to attach overnight. Regular medium was then replaced with 200 μl of fresh growth medium containing 8 μg/ml hexadimethrine bromide (polybrene). Lentiviral transduction particles were then added in the following amounts: Control shRNA (1.1×10^7 TU/ml, Sigma, cat# SHC002V), 15 μl for an MOI of 10; KEAP-1 shRNA (6.3×10^6 TU/ml, Sigma, cat# SHCLNV-TRCN0000046092), 63 μl for an MOI of 20. After 4 hours in the cell culture incubator, another 200 μl of growth medium was added on top of the original volume. Cells were replenished the next day with fresh complete growth medium and were allowed to recover for 24 hours, after which selection medium was applied (complete medium with 1 μg/ml puromycin).
Another method of testing the role of the Nrf2 regulatory pathway on compound activity is to determine the effect of silencing Keap1 on HMOX1 gene expression. It is known that deleting Keap1 will result in the induction of Nrf2 dependent genes but not, to any significant degree, HMOX1. The proposed explanation for this observation is that HMOX1 requires the concomitant derepression of Bach1 activity and that this event is more dependent on active processes (e.g., heme binding, changes in redox potential of the cell, phosphorylation of Bach1, etc.). We therefore tested the ability of Compound 13 and tool compounds to induce HMOX1 in the presence of silencing of Keap1 in normal human lung fibroblasts.
Normal human lung fibroblasts were tested with DMSO, CoPP, Compound 13, and two derivatives including Compound 4 and Compound 8. An electrophile, Compound 1, was also included in the test set. […] On the other hand, induction of HMOX1 by the electrophile Compound 1 was inhibited.

The test system of another data set is TXNRD1. The data set is described as follows: mRNA expression (Quantigene Plex) in NHLF cells: TXNRD1. The settings on record: mRNA normalized to GAPDH, above DMSO treated cells. The class given is cell-based, human. How it is done:
as §1

The test system of the next data set is HSPA6. As to the kind of experiment: mRNA expression (Quantigene Plex) in NHLF cells: HSPA6. The conditions noted are these: mRNA normalized to GAPDH, above DMSO treated cells. The class given is cell-based, human. Here is the method: as §1
For a further data set, the system named is HMOX1. The data set is described as follows: mRNA expression (Quantigene Plex) in NHLF cells: HMOX1. The conditions noted are these: mRNA normalized to GAPDH, above DMSO treated cells. The class given is cell-based, human. Here is the method: as §1
The test system of a further data set is ICAM. The data set is described as follows: mRNA expression (Quantigene Plex) in NHLF cells: ICAM. The class given is cell-based, human. The conditions noted are these: mRNA normalized to GAPDH, above DMSO treated cells. How it is done: as §1
For data set [1], the system named is NHLF cells. As to the kind of experiment: ROS measurements (H2DCF-DA imaging). The class given is cell-based, human. The conditions noted are these: 1 hr, cell-by-cell imaging, FIG. 3A/3B. How it is done:
Secondary growth of NHLF cells were used for all assays. Cells were cultured as above. Cells were plated into 384-well BD-Optilux Plates at 2,000 cells/well and cultured overnight at 37° C. and 5% CO2. The following day, cell were washed and 2,7-dihydrodichlorofluorescin diacetate (H2DCF-DA), 10 μM ferric ammonium citrate (FAC), and Hoechst stain were added to cells for 30 min. The cells were washed once with PBS to remove any H2DCF-DA not taken up by cells. Test compounds were prepared in FBM-2 media at the desired concentrations. The plates and stain-treated cells were incubated with test compounds for 1 hr at 37° C. and 5% CO2. Following the incubation period, ROS generation was determined by imaging the cells on a GE INcell 1000 imager (Hoechst Ex. 360 Em. 535; H2DCF-DA 488 Ex. 480 Em. 535). ROS levels were determined and quantified using GE IN Cell Analyzer Software.
In addition to gene profiling, the requirement for ROS generation or chemical reactivity was tested. ROS generation was measured using an automated imaging technique. Compound 13 as well as two other compounds that were found in the screening set were tested in this experiment. Untreated NHLF cells, NHLF cells treated with the HMOX1 inducer CoPP (a negative control), and NHLF cells treated with curcumin or celestrol (positive controls) were included as controls. […] Further experiments were also conducted on chemical derivatives of Compound 13. In those experiments, all compounds tested were found not to induce an elevation of ROS levels in the cell (FIG. 3B). Thus, Compound 13 and related compounds represent a class of agents that elevate HMOX1 production without elevating ROS production.

The subject of data set [2] is NHLF cells. The data set is described as follows: Cytoprotection of cisplatin (CDDP)-treated NHLF cells (propidium iodide staining). The class given is cell-based. The settings on record: NHLF cells, compound 24 hours prior to cisplatin exposure, FIG. 8. How it is done: A key outcome of Bach1 derepression and Nrf2 activation are the induction of cytoprotective genes. A method to test such cytoprotection is to assess the ability of a compound to protect normal human cells such as lung fibroblasts from toxicity due to cisplatin exposure. A model of cellular cytoprotection was established whereby normal human lung fibroblasts were treated with Bach1 modulators and then subsequently exposed to cisplatin. NHLF cells are very sensitive to cisplatin exposure; following a dose of 200 uM cisplatin, >90% of NHLF cells are propidium iodide positive, a measure of cell death.

Another data set concerns rat HMOX1 mRNA. The data set is described as follows: HMOX1 mRNA induction in rat blood after oral gavage. The class given is in vivo. The conditions noted are these: rats, oral gavage 5 or 25 mg/kg, over 5 hours, FIG. 11B. How it is done:
(§2) Next, selected Bach1 modulators were tested for in vivo function. […] Rats were dosed with 5 mg/kg of compound by oral gavage. Compound levels in blood were determined by LC-MS (left panel). […] In a second experiment, Compound 8 activity was tested by determining the amount of HMOX1 mRNA induced in rat blood. Animals were dosed by oral gavage and blood drawn at the indicated times.

The nature of data set [3]: Compound levels in rat blood after oral gavage (LC-MS). The class given is in vivo. The settings on record: rats. How it is done:
as §2

For `C=Cc1c(C)c2cc3[nH]c(cc4nc(cc5nc(cc1[nH]2)C(C)=C5CCC(=O)[O-])C(CCC(=O)[O-])=C4C)c(C)c3C=C.[Co+2]` [CoPP, Cobalt protoporphyrin IX, reference compound], the “ATF4 (fold induction)” value in the data set on ATF4 is given as 0.85 fold induction. Besides, the “NQO1 (fold induction)” value is 3.5 fold induction with NQO1 (Table 5, 6 h) and 4.22 fold induction in the data set with NQO1 (Table 6, 6 h). Besides, the “luciferase activity of HMOX1 mARE reporter” value in the data set with human Bach1 was “able to induce luciferase activity in the presence or absence of Bach1 protein expression; also recorded: can overcome this repression”. Further, the “GADD45A (fold induction)” value with GADD45A (Table 5, 6 h) is 1.02 fold induction; in the data set on GADD45A (Table 6, 6 h), 1.18 fold induction. Besides, the “HMOX1 induction in the presence of Keap1 silencing” value with Keap1 is given as “unaffected in their ability to induce HMOX1 in the presence of Keap1 silencing”. The “TXNRD1 (fold induction)” value in the data set with TXNRD1 (Table 5, 6 h) came out at 2.7 fold induction; in the data set with TXNRD1 (Table 6, 6 h), 2.39 fold induction. In addition, the “HSPA6 (fold induction)” value in the data set with HSPA6 (Table 5, 6 h) is reported as 0.9 fold induction; in the data set with HSPA6 (Table 6, 6 h) it was 0.86 fold induction. The “HMOX1 (fold induction)” value is listed as 48 fold induction in the data set with HMOX1 (Table 5, 6 h) and 49.64 fold induction in the data set on HMOX1 (Table 6, 6 h). In addition, the “ICAM (fold induction)” value in the data set with ICAM (Table 5, 6 h) is recorded as 1.1 fold induction. In the data set with ICAM (Table 6, 6 h), the “ICAM1 (fold induction)” value was determined as 0.56 fold induction. Moreover, in the data set with NHLF cells [1], the “ROS production (in words)” value is “did not”. The “protection against cisplatin toxicity” value in the data set with NHLF cells [2] is on record as “protect the cells from CDDP-mediated toxicity”.

Turning to `COCCNC(=O)c1ccc2c(c1)nc(Nc1nc3ccc(OC(F)(F)F)cc3s1)n2C` [Compound 8, 1-Methyl-2-(6-trifluoromethoxy-benzothiazol-2-ylamino)-1H-benzoimidazole-5-carboxylic acid (2-methoxy-ethyl)-amide], in the data set with Keap1, the “HMOX1 induction in the presence of Keap1 silencing” value is “unaffected in their ability to induce HMOX1 in the presence of Keap1 silencing; also recorded: behaves similarly to CoPP induction”. In addition, the “HMOX1 mRNA induced in rat blood” value in the data set with rat HMOX1 mRNA is “able to induce HMOX1 mRNA in rat blood in a time and dose-dependent manner; also recorded: dose-dependent induction of rat HMOX1 mRNA in blood samples”. Besides, the “compound levels in blood” value in data set [3] (5 mg/kg (legend: 5 or 25 mg/kg) oral gavage, LC-MS, FIG. 11A) is listed as “micromolar levels; also recorded: present in blood sample following oral dosing”. Besides, the oral bioavailability entry in data set [3] (oral gavage, FIG. 11) was “orally bioavailable”.
